Test: Ex vivo biodistribution
Type: in vivo, wild-type FVB/NJ mice
Experimental: To further understand the pharmacokinetics of [^18F]2, ex vivo biodistribution was performed with different groups of mice with and without co-administration of 2. Animals were sacrificed at 5 min, 10 min and 120 min post-injection of [^18F]2. Vital organs and tissues were collected and uptake of the [^18F]2 was measured as SUV after counting the radioactivity in each harvested tissue. […] Additionally, observed higher uptake of [^18F]2 in pancreas could potentially be extended to beta cell mass imaging as a separate study. […] Therefore, it would be valuable to evaluate PET [^18F]2 in pathological conditions to finally evaluate its selectivity, binding affinity, and retention in vivo in the presence and absence of self-blocking as a future study.
Uptake of PET probe [^18F]2 (1.40 ± 0.61 MBq) was assessed with and without co-administration of 2 in 10–13-week-old wild-type FVB/NJ mice (The Jackson Laboratory, Bar Harbor, ME) after tail vein injection followed by PET imaging at 5 min, 10 min, 15 min, 20 min, 25 min, 30 min, 40 min, 50 min, 60 min and 120 min post injection. Additionally, ex vivo biodistribution was performed at 5 min, 10 min and 120 min post tail vein injection. To prepare [^18F]2 formulation for injection, 0.76 ± 0.48 µg (2.01 ± 1.27 nmol) of [^18F]2 was formulated in 10% ethanol/ 90% isotonic saline. For the blocking experiment, 20.21 ± 1.63 µg (53.75 ± 4.33 nmol) of 2 in DMSO was added to [^18F]2 (Am of 87.27 ± 77.26 (n = 13) GBq/µmole, having 0.46 ± 0.31 µg or 1.23 ± 0.83 nmol of nonradioactive 2 in it) in the final formulation volume of ~ 100 µL. This study had 12 wild type FVB/NJ male mice with body weight 31.8 ± 2.7 g and 10 wild type FVB/NJ female mice with body weight 27.0 ± 3.6 g at the time of imaging. All the animals were anesthetized for tail vein injection and PET imaging using an induction dose of 3% isoflurane and a maintenance dose of 2–3% isoflurane, which was administered via isoflurane vaporizer. All anesthetized animals were kept warm during imaging using a heat supported imaging chamber. For ex vivo biodistribution studies, animals were sacrificed at 5 min, 10 min and 120 min post-injection by cervical dislocation and tissues were harvested for gamma counting. For PET imaging studies, each animal underwent a 60 min dynamic PET scan (Framing Sequence: 1 × 10 s, 4 × 15 s, 8 × 30 s, 5 × 60 s, 4 × 300 s, 3 × 600 s) immediately post injection followed by 10 min static PET scan at 120 min post-injection on small animal micro-PET/X-ray system, Genesys 4 (Sofie BioSystems, Dulles, VA, USA). The PET images were reconstructed using Genesys 4 imaging software installed on the imaging system. The obtained PET images were visualized and analyzed using image analysis software, “Amide's a medical image data examiner-AMIDE”[53]. PET images were normalized to the standardized uptake value (SUV) where; SUV=ConcentrationofdoseintissueμCi/g×Weightoftheanimal(g)/Injecteddose(μCi).

SUV, Average ± SD (Adipose, 5 min post-injection, [^18F]2 + 20 µg of 2): 0.33 ± 0.05
SUV, Average ± SD (Adipose, 5 min post-injection, [^18F]2 alone): 0.29 ± 0.09
SUV, Average ± SD (Adipose, 10 min post-injection, [^18F]2 + 20 µg of 2): 0.38 ± 0.05
SUV, Average ± SD (Adipose, 10 min post-injection, [^18F]2 alone): 0.24 ± 0.07
SUV, Average ± SD (Adipose, 120 min post-injection, [^18F]2 + 20 µg of 2): 0.25 ± 0.05
SUV, Average ± SD (Adipose, 120 min post-injection, [^18F]2 alone): 0.14 ± 0.04
SUV, Average ± SD (Bladder, 5 min post-injection, [^18F]2 + 20 µg of 2): 0.71 ± 0.09
SUV, Average ± SD (Bladder, 5 min post-injection, [^18F]2 alone): 0.40 ± 0.12
SUV, Average ± SD (Bladder, 10 min post-injection, [^18F]2 + 20 µg of 2): 0.84 ± 0.13
SUV, Average ± SD (Bladder, 10 min post-injection, [^18F]2 alone): 0.48 ± 0.08
SUV, Average ± SD (Bladder, 120 min post-injection, [^18F]2 + 20 µg of 2): 0.73 ± 0.54
SUV, Average ± SD (Bladder, 120 min post-injection, [^18F]2 alone): 1.58 ± 1.90
SUV, Average ± SD (Blood, 5 min post-injection, [^18F]2 + 20 µg of 2): 0.93 ± 0.14
SUV, Average ± SD (Blood, 5 min post-injection, [^18F]2 alone): 0.38 ± 0.18
SUV, Average ± SD (Blood, 10 min post-injection, [^18F]2 + 20 µg of 2): 0.79 ± 0.12
SUV, Average ± SD (Blood, 10 min post-injection, [^18F]2 alone): 0.34 ± 0.02
SUV, Average ± SD (Blood, 120 min post-injection, [^18F]2 + 20 µg of 2): 0.43 ± 0.07
SUV, Average ± SD (Blood, 120 min post-injection, [^18F]2 alone): 0.15 ± 0.07
SUV, Average ± SD (Bone, 5 min post-injection, [^18F]2 + 20 µg of 2): 0.48 ± 0.02
SUV, Average ± SD (Bone, 5 min post-injection, [^18F]2 alone): 0.30 ± 0.14
SUV, Average ± SD (Bone, 10 min post-injection, [^18F]2 + 20 µg of 2): 0.50 ± 0.03
SUV, Average ± SD (Bone, 10 min post-injection, [^18F]2 alone): 0.29 ± 0.04
SUV, Average ± SD (Bone, 120 min post-injection, [^18F]2 + 20 µg of 2): 1.22 ± 0.31
SUV, Average ± SD (Bone, 120 min post-injection, [^18F]2 alone): 1.08 ± 0.33
SUV, Average ± SD (CN (caudate nucleus), 5 min post-injection, [^18F]2 + 20 µg of 2): 0.65 ± 0.04
SUV, Average ± SD (CN (caudate nucleus), 5 min post-injection, [^18F]2 alone): 0.87 ± 0.48
SUV, Average ± SD (CN (caudate nucleus), 10 min post-injection, [^18F]2 + 20 µg of 2): 0.45 ± 0.05
SUV, Average ± SD (CN (caudate nucleus), 10 min post-injection, [^18F]2 alone): 0.34 ± 0.07
SUV, Average ± SD (CN (caudate nucleus), 120 min post-injection, [^18F]2 + 20 µg of 2): 0.19 ± 0.03
SUV, Average ± SD (CN (caudate nucleus), 120 min post-injection, [^18F]2 alone): 0.06 ± 0.02
SUV, Average ± SD (Heart, 5 min post-injection, [^18F]2 + 20 µg of 2): 1.38 ± 0.11
SUV, Average ± SD (Heart, 5 min post-injection, [^18F]2 alone): 0.69 ± 0.36
SUV, Average ± SD (Heart, 10 min post-injection, [^18F]2 + 20 µg of 2): 1.14 ± 0.16
SUV, Average ± SD (Heart, 10 min post-injection, [^18F]2 alone): 0.45 ± 0.02
SUV, Average ± SD (Heart, 120 min post-injection, [^18F]2 + 20 µg of 2): 0.48 ± 0.12
SUV, Average ± SD (Heart, 120 min post-injection, [^18F]2 alone): 0.16 ± 0.08
SUV, Average ± SD (Left kidney, 5 min post-injection, [^18F]2 + 20 µg of 2): 2.47 ± 0.30
SUV, Average ± SD (Left kidney, 5 min post-injection, [^18F]2 alone): 1.37 ± 0.69
SUV, Average ± SD (Left kidney, 10 min post-injection, [^18F]2 + 20 µg of 2): 2.27 ± 0.32
SUV, Average ± SD (Left kidney, 10 min post-injection, [^18F]2 alone): 1.01 ± 0.16
SUV, Average ± SD (Left kidney, 120 min post-injection, [^18F]2 + 20 µg of 2): 2.18 ± 0.51
SUV, Average ± SD (Left kidney, 120 min post-injection, [^18F]2 alone): 0.54 ± 0.06
SUV, Average ± SD (Lung, 5 min post-injection, [^18F]2 + 20 µg of 2): 1.17 ± 0.15
SUV, Average ± SD (Lung, 5 min post-injection, [^18F]2 alone): 0.65 ± 0.35
SUV, Average ± SD (Lung, 10 min post-injection, [^18F]2 + 20 µg of 2): 1.08 ± 0.15
SUV, Average ± SD (Lung, 10 min post-injection, [^18F]2 alone): 0.48 ± 0.03
SUV, Average ± SD (Lung, 120 min post-injection, [^18F]2 + 20 µg of 2): 0.52 ± 0.09
SUV, Average ± SD (Lung, 120 min post-injection, [^18F]2 alone): 0.18 ± 0.07
SUV, Average ± SD (Muscle, 5 min post-injection, [^18F]2 + 20 µg of 2): 0.90 ± 0.17
SUV, Average ± SD (Muscle, 5 min post-injection, [^18F]2 alone): 0.47 ± 0.23
SUV, Average ± SD (Muscle, 10 min post-injection, [^18F]2 + 20 µg of 2): 0.72 ± 0.09
SUV, Average ± SD (Muscle, 10 min post-injection, [^18F]2 alone): 0.43 ± 0.03
SUV, Average ± SD (Muscle, 120 min post-injection, [^18F]2 + 20 µg of 2): 0.32 ± 0.06
SUV, Average ± SD (Muscle, 120 min post-injection, [^18F]2 alone): 0.11 ± 0.04
SUV, Average ± SD (Pancreas, 5 min post-injection, [^18F]2 + 20 µg of 2): 1.83 ± 0.16
SUV, Average ± SD (Pancreas, 5 min post-injection, [^18F]2 alone): 1.27 ± 0.56
SUV, Average ± SD (Pancreas, 10 min post-injection, [^18F]2 + 20 µg of 2): 1.53 ± 0.15
SUV, Average ± SD (Pancreas, 10 min post-injection, [^18F]2 alone): 0.85 ± 0.23
SUV, Average ± SD (Pancreas, 120 min post-injection, [^18F]2 + 20 µg of 2): 0.57 ± 0.15
SUV, Average ± SD (Pancreas, 120 min post-injection, [^18F]2 alone): 0.22 ± 0.09
SUV, Average ± SD (Right kidney, 5 min post-injection, [^18F]2 + 20 µg of 2): 2.46 ± 0.18
SUV, Average ± SD (Right kidney, 5 min post-injection, [^18F]2 alone): 1.34 ± 0.69
SUV, Average ± SD (Right kidney, 10 min post-injection, [^18F]2 + 20 µg of 2): 2.30 ± 0.35
SUV, Average ± SD (Right kidney, 10 min post-injection, [^18F]2 alone): 0.97 ± 0.12
SUV, Average ± SD (Right kidney, 120 min post-injection, [^18F]2 + 20 µg of 2): 2.30 ± 0.81
SUV, Average ± SD (Right kidney, 120 min post-injection, [^18F]2 alone): 0.48 ± 0.15
SUV, Average ± SD (Skin, 5 min post-injection, [^18F]2 + 20 µg of 2): 0.66 ± 0.16
SUV, Average ± SD (Skin, 5 min post-injection, [^18F]2 alone): 0.46 ± 0.17
SUV, Average ± SD (Skin, 10 min post-injection, [^18F]2 + 20 µg of 2): 0.66 ± 0.10
SUV, Average ± SD (Skin, 10 min post-injection, [^18F]2 alone): 0.52 ± 0.16
SUV, Average ± SD (Skin, 120 min post-injection, [^18F]2 + 20 µg of 2): 0.71 ± 0.66
SUV, Average ± SD (Skin, 120 min post-injection, [^18F]2 alone): 0.10 ± 0.04
SUV, Average ± SD (Spleen, 5 min post-injection, [^18F]2 + 20 µg of 2): 1.00 ± 0.05
SUV, Average ± SD (Spleen, 5 min post-injection, [^18F]2 alone): 0.74 ± 0.27
SUV, Average ± SD (Spleen, 10 min post-injection, [^18F]2 + 20 µg of 2): 1.14 ± 0.50
SUV, Average ± SD (Spleen, 10 min post-injection, [^18F]2 alone): 0.55 ± 0.20
SUV, Average ± SD (Spleen, 120 min post-injection, [^18F]2 + 20 µg of 2): 0.44 ± 0.11
SUV, Average ± SD (Spleen, 120 min post-injection, [^18F]2 alone): 0.15 ± 0.07
SUV, Average ± SD (Stomach, 5 min post-injection, [^18F]2 + 20 µg of 2): 0.86 ± 0.32
SUV, Average ± SD (Stomach, 5 min post-injection, [^18F]2 alone): 0.80 ± 0.24
SUV, Average ± SD (Stomach, 10 min post-injection, [^18F]2 + 20 µg of 2): 0.97 ± 0.63
SUV, Average ± SD (Stomach, 10 min post-injection, [^18F]2 alone): 0.53 ± 0.09
SUV, Average ± SD (Stomach, 120 min post-injection, [^18F]2 + 20 µg of 2): 1.28 ± 1.08
SUV, Average ± SD (Stomach, 120 min post-injection, [^18F]2 alone): 0.68 ± 0.41
SUV, Average ± SD (Urine, 5 min post-injection, [^18F]2 + 20 µg of 2): 0.20 ± 0.29
SUV, Average ± SD (Urine, 5 min post-injection, [^18F]2 alone): 0.10 ± 0.10
SUV, Average ± SD (Urine, 10 min post-injection, [^18F]2 + 20 µg of 2): 0.85 ± 0.79
SUV, Average ± SD (Urine, 10 min post-injection, [^18F]2 alone): 1.78 ± 1.21
SUV, Average ± SD (Urine, 120 min post-injection, [^18F]2 + 20 µg of 2): 3.20 ± 2.32
SUV, Average ± SD (Urine, 120 min post-injection, [^18F]2 alone): 20.55 ± 8.76
SUV, Average ± SD (liver, 5 min post-injection, [^18F]2 + 20 µg of 2): 8.37 ± 0.36
SUV, Average ± SD (liver, 5 min post-injection, [^18F]2 alone): 11.85 ± 0.33
SUV, Average ± SD (liver, 10 min post-injection, [^18F]2 + 20 µg of 2): 7.85 ± 0.41
SUV, Average ± SD (liver, 10 min post-injection, [^18F]2 alone): 14.43 ± 1.48
SUV, Average ± SD (liver, 120 min post-injection, [^18F]2 + 20 µg of 2): 4.00 ± 0.22
SUV, Average ± SD (liver, 120 min post-injection, [^18F]2 alone): 3.08 ± 1.44
SMILES: O=C(Nc1cnccc1-c1ccc([18F])cc1)c1ccnc(NC(=O)C2CC2)c1 [[^18F]2]

From publication PMC11237012, “Synthesis and preliminary evaluation of novel PET probes for GSK-3 imaging” (Scientific Reports, 2024)
